The source made the active and inactive calls. The calls are words filed in the database; no cut-off is given here.
Experiments:
[1] = organism: Homo sapiens; assay: Selectivity ratio of IC50 for human recombinant iNOS to IC50 for human recombinant eNOS
[2] = molecular target: T1, Nitric oxide synthase, inducible (Homo sapiens, UniProt P35228); assay: Inhibition of human recombinant iNOS
[3] = molecular target: Sodium-dependent noradrenaline transporter (Homo sapiens, UniProt P23975); assay: Inhibition of NET
[4] = molecular target: Sodium-dependent serotonin transporter (Homo sapiens, UniProt P31645); assay: Inhibition of serotonin transporter
[5] = molecular target: Cytochrome P450 2D6 (Homo sapiens, UniProt P10635); assay: Inhibition of CYP2D6; type: ADME
[6] = molecular target: Voltage-gated inwardly rectifying potassium channel KCNH2 (Homo sapiens, UniProt Q12809); assay: Inhibition of human ERG
[7] = Lipophilicity, log D of the compound; type: physicochemical; settings: octanol/water
[8] = molecular target: T1, Nitric oxide synthase, inducible; assay: Inhibition of iNOS in intact human DLD1 cells assessed as nitric oxide production; type: cell-based, DLD-1
[9] = Volume of distribution at steady state in iv dosed rat; type: ADME, organism-based; settings: in vivo, read-out: Vdss
[10] = Oral bioavailability in rat; type: ADME, organism-based; settings: in vivo
[11] = test system: Hepatocyte; assay: Metabolic stability in human hepatocytes assessed as per 10^6 cells; type: ADME, cell-based
[12] = Metabolic stability in human microsomes assessed as per mg of tissue; type: ADME, Microsome
[13] = Clearance in iv dosed rat; type: ADME, organism-based; settings: in vivo
[14] = Half life in iv dosed rat; type: ADME, organism-based; settings: in vivo
[15] = test system: Rattus norvegicus; assay: Analgesic activity in Dark Agouti rat collagen-induced arthritis model at 75 umol/kg bid; type: functional, organism-based
[16] = test system: Rattus norvegicus; assay: Analgesic activity in Dark Agouti rat collagen-induced arthritis model assessed as reduction in inflammation at 75 umol/kg bid by histological analysis; type: functional, organism-based
[17] = test system: Rattus norvegicus; assay: Analgesic activity in Dark Agouti rat collagen-induced arthritis model assessed as reduction in erosion scores at 75 umol/kg bid by histological analysis; type: functional, organism-based
[18] = test system: Hepatocyte; assay: Metabolic stability in rat hepatocytes assessed as per 10^6 cells; type: ADME, cell-based

Sequence of Sodium-dependent serotonin transporter (P31645 whole entry): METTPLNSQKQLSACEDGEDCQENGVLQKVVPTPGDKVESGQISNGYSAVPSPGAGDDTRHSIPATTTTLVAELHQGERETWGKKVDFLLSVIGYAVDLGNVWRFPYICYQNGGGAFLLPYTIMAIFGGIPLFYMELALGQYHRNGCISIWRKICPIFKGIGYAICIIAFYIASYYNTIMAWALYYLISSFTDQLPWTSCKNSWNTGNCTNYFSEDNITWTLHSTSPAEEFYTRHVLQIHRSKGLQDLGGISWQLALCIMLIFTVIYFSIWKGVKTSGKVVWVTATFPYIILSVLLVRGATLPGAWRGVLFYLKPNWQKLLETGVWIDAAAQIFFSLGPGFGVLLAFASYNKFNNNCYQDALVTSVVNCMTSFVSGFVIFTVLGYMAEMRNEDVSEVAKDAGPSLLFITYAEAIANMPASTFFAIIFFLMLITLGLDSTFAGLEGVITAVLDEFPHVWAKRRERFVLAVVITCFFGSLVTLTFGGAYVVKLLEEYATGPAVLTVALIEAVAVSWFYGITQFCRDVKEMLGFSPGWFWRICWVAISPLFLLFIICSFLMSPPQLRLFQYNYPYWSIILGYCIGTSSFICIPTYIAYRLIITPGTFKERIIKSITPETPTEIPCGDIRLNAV
T1 sequence (P35228 whole entry): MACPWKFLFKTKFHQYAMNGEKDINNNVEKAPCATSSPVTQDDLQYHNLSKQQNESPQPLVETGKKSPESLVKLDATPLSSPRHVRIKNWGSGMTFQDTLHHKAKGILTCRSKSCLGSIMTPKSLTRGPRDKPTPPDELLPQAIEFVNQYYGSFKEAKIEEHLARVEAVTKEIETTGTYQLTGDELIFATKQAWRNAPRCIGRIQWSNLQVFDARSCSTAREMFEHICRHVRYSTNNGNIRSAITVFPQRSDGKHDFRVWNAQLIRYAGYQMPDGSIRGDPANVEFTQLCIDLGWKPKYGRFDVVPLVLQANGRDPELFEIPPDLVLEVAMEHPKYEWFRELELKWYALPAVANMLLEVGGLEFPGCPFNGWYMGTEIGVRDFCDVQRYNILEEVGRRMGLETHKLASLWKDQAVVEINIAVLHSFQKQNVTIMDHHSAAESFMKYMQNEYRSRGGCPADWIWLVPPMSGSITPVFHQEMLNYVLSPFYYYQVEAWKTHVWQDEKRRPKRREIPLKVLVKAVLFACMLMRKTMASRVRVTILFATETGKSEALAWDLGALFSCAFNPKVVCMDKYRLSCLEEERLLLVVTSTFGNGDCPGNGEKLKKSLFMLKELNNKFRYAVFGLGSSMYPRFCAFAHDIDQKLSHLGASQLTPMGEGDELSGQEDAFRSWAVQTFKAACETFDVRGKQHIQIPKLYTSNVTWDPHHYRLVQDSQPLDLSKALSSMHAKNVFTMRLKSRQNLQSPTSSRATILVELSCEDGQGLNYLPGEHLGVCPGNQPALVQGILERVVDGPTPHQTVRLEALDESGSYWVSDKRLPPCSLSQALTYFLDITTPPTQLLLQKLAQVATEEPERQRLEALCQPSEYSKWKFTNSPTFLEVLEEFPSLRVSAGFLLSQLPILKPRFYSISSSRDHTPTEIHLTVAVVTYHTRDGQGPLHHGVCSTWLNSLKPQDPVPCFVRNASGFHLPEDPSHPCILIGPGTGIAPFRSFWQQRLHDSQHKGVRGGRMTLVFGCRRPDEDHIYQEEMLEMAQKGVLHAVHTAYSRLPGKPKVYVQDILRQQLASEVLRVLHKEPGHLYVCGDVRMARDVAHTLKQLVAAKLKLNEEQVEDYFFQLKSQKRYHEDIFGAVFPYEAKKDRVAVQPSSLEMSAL
Sequence of Sodium-dependent noradrenaline transporter (P23975 whole entry): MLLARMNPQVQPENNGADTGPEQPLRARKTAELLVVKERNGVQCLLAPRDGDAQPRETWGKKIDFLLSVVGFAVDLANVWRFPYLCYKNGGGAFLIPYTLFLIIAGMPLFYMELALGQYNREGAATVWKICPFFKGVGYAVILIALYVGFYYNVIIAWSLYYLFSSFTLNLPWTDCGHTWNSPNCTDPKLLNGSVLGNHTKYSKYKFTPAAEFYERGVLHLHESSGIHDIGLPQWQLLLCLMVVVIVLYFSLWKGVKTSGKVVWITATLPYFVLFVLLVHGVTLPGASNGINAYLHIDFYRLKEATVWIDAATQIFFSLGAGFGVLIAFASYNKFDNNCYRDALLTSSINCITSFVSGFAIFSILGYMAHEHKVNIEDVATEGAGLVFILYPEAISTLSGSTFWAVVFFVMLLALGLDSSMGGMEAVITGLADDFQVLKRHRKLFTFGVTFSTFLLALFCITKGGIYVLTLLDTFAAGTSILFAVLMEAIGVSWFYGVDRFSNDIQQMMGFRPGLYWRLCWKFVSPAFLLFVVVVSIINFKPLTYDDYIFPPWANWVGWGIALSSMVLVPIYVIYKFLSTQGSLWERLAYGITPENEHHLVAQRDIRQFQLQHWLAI
Sequence of Cytochrome P450 2D6 (P10635 whole entry): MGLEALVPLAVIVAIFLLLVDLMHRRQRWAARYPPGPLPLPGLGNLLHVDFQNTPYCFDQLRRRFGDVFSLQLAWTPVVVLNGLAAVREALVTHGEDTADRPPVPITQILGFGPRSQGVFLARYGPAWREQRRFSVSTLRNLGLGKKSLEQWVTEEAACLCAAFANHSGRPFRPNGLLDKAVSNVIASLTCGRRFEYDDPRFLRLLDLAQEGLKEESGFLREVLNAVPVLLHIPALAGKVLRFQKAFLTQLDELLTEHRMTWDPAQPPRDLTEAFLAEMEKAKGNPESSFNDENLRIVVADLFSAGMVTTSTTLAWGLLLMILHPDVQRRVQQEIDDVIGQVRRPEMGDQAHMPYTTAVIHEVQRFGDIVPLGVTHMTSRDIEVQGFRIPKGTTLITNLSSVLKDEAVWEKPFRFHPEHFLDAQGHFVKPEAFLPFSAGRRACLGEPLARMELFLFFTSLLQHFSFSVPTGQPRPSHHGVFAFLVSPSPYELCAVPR
Sequence of Voltage-gated inwardly rectifying potassium channel KCNH2 (Q12809 whole entry): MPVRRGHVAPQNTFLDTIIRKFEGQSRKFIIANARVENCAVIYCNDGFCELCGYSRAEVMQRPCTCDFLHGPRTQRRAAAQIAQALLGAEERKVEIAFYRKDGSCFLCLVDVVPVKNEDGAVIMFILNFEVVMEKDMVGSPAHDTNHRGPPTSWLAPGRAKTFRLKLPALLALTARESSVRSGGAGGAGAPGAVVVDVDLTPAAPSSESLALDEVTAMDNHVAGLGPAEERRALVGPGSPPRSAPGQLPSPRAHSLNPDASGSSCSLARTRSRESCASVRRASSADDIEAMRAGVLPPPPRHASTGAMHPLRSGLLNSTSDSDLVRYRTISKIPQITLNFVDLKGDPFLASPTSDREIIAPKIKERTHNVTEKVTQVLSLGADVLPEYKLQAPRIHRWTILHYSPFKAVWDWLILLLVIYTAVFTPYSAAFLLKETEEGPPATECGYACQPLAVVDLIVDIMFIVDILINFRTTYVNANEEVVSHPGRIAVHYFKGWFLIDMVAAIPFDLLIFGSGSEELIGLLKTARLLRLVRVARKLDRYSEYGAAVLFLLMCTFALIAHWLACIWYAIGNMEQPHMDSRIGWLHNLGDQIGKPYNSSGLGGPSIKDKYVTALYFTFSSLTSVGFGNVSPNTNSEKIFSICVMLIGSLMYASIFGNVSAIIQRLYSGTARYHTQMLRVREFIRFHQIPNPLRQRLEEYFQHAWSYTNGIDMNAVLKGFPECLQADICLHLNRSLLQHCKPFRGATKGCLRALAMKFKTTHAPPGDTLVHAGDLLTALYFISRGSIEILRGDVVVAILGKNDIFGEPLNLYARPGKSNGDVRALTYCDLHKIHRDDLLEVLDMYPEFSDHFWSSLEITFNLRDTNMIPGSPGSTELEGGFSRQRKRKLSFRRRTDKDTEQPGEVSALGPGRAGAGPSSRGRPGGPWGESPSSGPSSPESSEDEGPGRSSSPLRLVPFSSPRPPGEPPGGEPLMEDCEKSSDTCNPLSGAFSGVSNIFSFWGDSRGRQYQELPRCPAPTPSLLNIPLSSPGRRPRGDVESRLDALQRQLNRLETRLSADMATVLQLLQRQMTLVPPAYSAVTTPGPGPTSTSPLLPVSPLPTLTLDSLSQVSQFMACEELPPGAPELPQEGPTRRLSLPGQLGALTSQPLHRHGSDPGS

SMILES | Ratio IC50 [1] | IC50 [2] | IC50 ([3]; read-out: IC50) | IC50 ([4]; read-out: IC50) | IC50 ([5]; read-out: IC50) | logD [7] | IC50 ([8]; read-out: IC50) | IC50 [6] | further results
N#Cc1ccc(Cl)cc1S[C@H](CCN)c1ccccc1.O=C(O)/C=C/C(=O)O |  | 4 nM | 17 µM | 6.7 µM | 4100 nM |  | […] | Not Active | 
N#Cc1ccc(C(F)(F)F)nc1O[C@H](CCN)c1ccno1.O=C(O)C(=O)O |  | 5.4 nM | > 100 µM | 70 µM | > 14000 nM | -0.5 | 720 nM |  | IC50 ([6]; read-out: IC50): > 10 µM; Vd [9]: 3.4 L/kg; bioavailability [10]: 49%
Cc1ccnc(NCc2ccccc2)c1 | 12 | 790 nM |  |  |  |  |  |  | 
CNCC[C@@H](Oc1cc(OC)ccc1C#N)c1ccccc1.O=C(O)C(=O)O |  | 110 nM | 12 µM | 5.7 µM | 300 nM | 0.9 | 9500 nM | Not Active | 
Cc1ccc(C#N)c(S[C@H](CCN)c2ccccc2)n1.O=C(O)/C=C/C(=O)O | > 10000 | 4 nM | 7.4 µM | 2.6 µM | 5000 nM | 0.7 | 600 nM | Not Active | 
CCC(CCNC)Oc1cc(Cl)ccc1C#N.Cl (racemic) | 170 | 51 nM | 7.1 µM | 44 µM | 400 nM | 0.4 | 3600 nM | Not Active | 
N#Cc1ccc(C(=O)N2CCC3(CC2)N=C(N)c2c(F)ccc(F)c2N3)cn1 |  |  |  |  |  | 0.79 |  |  | IC50 [3]: Not Active; IC50 [4]: Not Active; IC50 [5]: Not Active; IC50 ([6]; read-out: IC50): 0.1 µM; Stability [11]: < 3 µL/min; Stability [12]: Unstable; clearance [13]: 57 mL/min/kg; Vd [9]: 4.5 L/kg; half-life [14]: 66 min; bioavailability [10]: 75%; Stability [18]: 5 µL/min

Further lines, with some results ahead:

Ratio IC50 [1] | IC50 [2] | IC50 ([3]; read-out: IC50) | IC50 ([4]; read-out: IC50) | IC50 ([5]; read-out: IC50) | logD [7] | IC50 ([8]; read-out: IC50) | SMILES | IC50 [6] | further results
> 10000 | 4 nM | 15 µM | 2.1 µM | 400 nM | 0.8 | 900 nM | N#Cc1ccc(Cl)cc1O[C@H](CCN)c1ccccc1.O=C(O)C(=O)O | Not Active | 
100 | 960 nM |  |  |  | 0.9 |  | N#Cc1cc(Cl)ccc1O[C@H](CCN)c1ccccc1.O=C(O)/C=C/C(=O)O | Not Active | IC50 [3]: Not Active; IC50 [4]: Not Active; IC50 [5]: Not Active; IC50 ([8]; dld-1): Not Active
> 53 | 1900 nM |  |  |  |  |  | NCC(Oc1cc(Cl)ccc1Cl)c1ccccc1 (stereo not drawn) | Not Active | IC50 [3]: Not Active; IC50 [4]: Not Active; IC50 [5]: Not Active; IC50 ([8]; dld-1): Not Active
> 10000 | 6 nM | 16 µM | 4.4 µM | 340 nM | 0.8 | 700 nM | N#Cc1cc(F)c(Cl)cc1O[C@H](CCN)c1ccccc1.O=C(O)C(=O)O |  | IC50 ([6]; read-out: IC50): > 10 µM; Stability [11]: < 1 µL/min; Stability [12]: 6 µL/min; clearance [13]: 49 mL/min/kg; Vd [9]: 13 L/kg; half-life [14]: 258 min; bioavailability [10]: 57%; Activity [15]: Active; Activity [16]: Active; Activity [17]: Active; Stability [18]: 8.9 µL/min
 | 9 nM | 0.5 µM | 4.5 µM | 1000 nM | 1.7 | 700 nM | CNCC[C@@H](Oc1cc(Cl)ccc1C#N)c1ccccc1.Cl |  | Stability [11]: 1.4 µL/min; Stability [12]: 4 µL/min; clearance [13]: 94 mL/min/kg; Vd [9]: 6.6 L/kg; half-life [14]: 78 min; Stability [18]: 54 µL/min
1400 | 71 nM | 28 µM | 10 µM | 1600 nM | 1.3 | 2700 nM | CNCC[C@@H](Oc1cc(C(F)(F)F)ccc1C#N)c1ccccc1.Cl | Not Active | 
> 4500 | 22 nM |  |  |  |  | 8700 nM | CNCC[C@@H](Oc1cc(Cl)ccc1Cl)c1ccccc1.O=C(O)/C=C/C(=O)O | Not Active | IC50 [5]: Not Active

From ChEMBL document CHEMBL1759901 (Bioorg Med Chem Lett, 2011)
